In patent US12030892B2, “CRBN modulators” (DANA-FARBER CANCER INSTITUTE, INC., priority 2018, dated 2024):
Blank lines part the entries; values can stand above or below the molecule they belong to.

Tests used:
DDB1ΔB-CRBN = DDB1ΔB-CRBN (Homo sapiens (Human), UniProt Q96SW2); experiment: Atto565-Lenalidomide FP displacement assay (CRBN binding); details: for CRBN binding (in words), IC50 comparable to lenalidomide: FP displacement assay, FIG. 3A-3D; for IC50: FP displacement of 10 nM Atto565-Lenalidomide, 100 nM DDB1ΔB-CRBN, n=3; for Ki: FP displacement of Atto565-Lenalidomide
Chain of DDB1ΔB-CRBN (Q96SW2 whole entry, stated change not applied): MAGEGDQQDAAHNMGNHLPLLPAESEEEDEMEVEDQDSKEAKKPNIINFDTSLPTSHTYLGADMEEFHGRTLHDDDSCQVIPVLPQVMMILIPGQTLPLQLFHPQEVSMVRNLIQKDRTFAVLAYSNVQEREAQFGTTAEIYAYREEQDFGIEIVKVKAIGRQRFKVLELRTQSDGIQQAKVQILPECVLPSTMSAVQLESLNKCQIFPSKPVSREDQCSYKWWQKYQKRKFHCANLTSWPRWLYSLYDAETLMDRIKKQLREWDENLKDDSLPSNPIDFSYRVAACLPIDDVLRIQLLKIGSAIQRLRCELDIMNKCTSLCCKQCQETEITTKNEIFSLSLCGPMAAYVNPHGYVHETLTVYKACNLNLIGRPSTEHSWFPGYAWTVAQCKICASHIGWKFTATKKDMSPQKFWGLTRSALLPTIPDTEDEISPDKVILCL
Description: Compounds in Atto565-Lenalidomide displacement assay were dispensed in a 384-well microplate (Corning, 4514) using D300e Digital Dispenser (HP) normalized to 1% DMSO into 10 nM Atto565-Leanlidomide, 100 nM DDB1ΔB-CRBN, 50 mM Tris pH 7.5, 200 mM NaCl, 0.1% Pluronic® F-68 solution (Sigma). Compound titrations were incubated for 60 min at RT. The change in fluorescence polarization was monitored using a PHERAstar® FS microplate reader (BMG Labtech) for 1 h in 120 s cycles. Data from three independent replicates (n=3) was used to estimate IC50 values using variable slope equation in GraphPad Prism 7.

IKZF1 = IKZF1 (Homo sapiens (Human), UniProt Q13422+Q96SW2, DEL197-238/DEL256-519); experiment: Cellular degradation assay, eGFP-IKZF1/mCherry reporter in Flip-In 293 cells; format: cell-based; details: 5 h incubation, eGFP/mCherry relative abundance, FIG. 1A-1C
Description: Following 2-3 passage cycle FACS (FACSAria™ II, BD) was used to enrich for cells expressing eGFP and mCherry. […] Data was analyzed using FlowJo® (FlowJo®, LCC). […] The eGFP protein abundance relative to mCherry was then quantified as a ten-fold amplified ratio for each individual cell using the formula: 10×eGFP/mCherry. The median of the ratio was then calculated per set, normalized to the median of the DMSO ratio, and is denoted as relative abundance.

MM1.S cells = experiment: MM1.S cell proliferation; format: cell-based; details: Homo sapiens
BRD2 = experiment: Cellular degradation assay, eGFP-BRD2BD1/BRD2BD2 mCherry reporters in Flip-In 293 cells; format: cell-based; details: BRD2BD1 and BRD2BD2 reporters, 5 h; compound 2 active via BRD2BD2
Description: (§1) IKZF1 (construct IKZF1^Δ1-82/Δ197-238/Δ256-519) BRD2BD1, BRD2BD2, BRD3BD1, BRD3BD2, BRD4BD1, and BRD4BD2 were subcloned into mammalian pcDNA5/FRT Vector (Ampicillin and Hygromycin B resistant) modified to contain MCS-eGFP-P2A-mCherry. Stable cell lines expressing eGFP-protein fusion and mCherry reporter were generated using Flip-In 293 system. Plasmid (0.3 μg) and pOG44 (4.7 μg) DNA were preincubated in 100 μL of Opti-MEM I (Gibco™ Life Technologies™) media containing 0.05 mg/ml Lipofectamine 2000 (Invitrogen™) for 20 min and added to Flip-In 293 cells containing 1.9 ml of DMEM media (Gibco™, Life Technologies™) per well in a 6-well plate format (Falcon®, 353046). […] Titrated compounds were incubated with cells for 5 h following trypsinisation and resuspension in DMEM media, transferred into 96-well plates (353910, Falcon®) and analyzed by flow cytometer (Guava© easyCyte HT, Millipore™) Signal from 5000 cells per well was acquired in singlicate or duplicate and the eGFP and mCherry florescence monitored. Data was analyzed using FlowJo® (FlowJo®, LCC). Forward and side scatter outliers, frequently associated with cell debris, were removed leaving >90% of total cells, followed by removal of eGFP and mCherry signal outliers, leaving 88-90% of total cells creating the set used for quantification. […]

BRD3 = experiment: Cellular degradation assay, eGFP-BRD3BD1/BRD3BD2 mCherry reporters in Flip-In 293 cells; format: cell-based; details: BRD3BD1 and BRD3BD2 reporters, 5 h; both compounds active via BD1 and BD2
Description: as §1

BRD4 = experiment: Cellular degradation assay, eGFP-BRD4BD1/BRD4BD2 mCherry reporters in Flip-In 293 cells; format: cell-based; details: BRD4BD1 and BRD4BD2 reporters, 5 h; compound 2 via BD1 and BD2, compound 1 via BD1
Description: as §1

[1] = system: bromodomain proteins BRD2, 3 and 4; experiment: Change of cellular protein abundance (TMT quantitative proteomics) in Kelly cells; format: cell-based, human; details: 1 μM, 6 hours, compared to DMSO control
Description: Kelly cells were treated with DMSO control (biological triplicates) or 1 μM of inventive compound 1 or compound 2 for 6 hours (biological singlicate). Lysis buffer (8 M Urea, 50 mM NaCl, 50 mM 4-(2hydroxyethyl)-1-piperazineethanesulfonic acid (EPPS) pH 8.5, Protease and Phosphatase inhibitors from Roche) was added to the cell pellets and homogenized by 20 passes through a 21 gauge (1.25 in. long) needle to achieve a cell lysate with a protein concentration between 1-4 mg mL^−1. A Micro BCA™ assay (Pierce™) was used to determine the final protein concentration in the cell lysate. 200 μg of protein for each sample were reduced and alkylated as previously described.
Proteins were precipitated using methanol/chloroform/water (4:1:3). In brief, four volumes of methanol were added to the cell lysate, followed by one volume of chloroform, and finally three volumes of water. The mixture was vortexed and centrifuged to separate the chloroform phase from the aqueous phase. The precipitated protein was washed with three volumes of methanol, centrifuged and the resulting washed precipitated protein was allowed to air dry. Precipitated protein was resuspended in 4 M Urea, 50 mM 4-(2-hydroxyethyl)-1-piperazineethanesulfonic acid (HEPES) pH 7.4, followed by dilution to 1 M urea with the addition of 200 mM EPPS, pH 8. Proteins were first digested with LysC (1:50; enzyme:protein) for 12 hours at room temperature. The LysC digestion was diluted to 0.5 M Urea with 200 mM EPPS pH 8 followed by digestion with trypsin (1:50; enzyme:protein) for 6 hours at 37° C. Tandem mass tag (TMT) reagents (Thermo Fisher Scientific) were dissolved in anhydrous acetonitrile (ACN) according to manufacturer's instructions. Anhydrous ACN was added to each peptide sample to a final concentration of 30% v/v, and labeling was induced with the addition of TMT reagent to each sample at a ratio of 1:4 peptide:TMT label. The 10-plex labeling reactions were performed for 1.5 hours at room temperature and the reaction quenched by the addition of hydroxylamine to a final concentration of 0.3% for 15 minutes at room temperature. The sample channels were combined at a 1:1:1:1:1:1:1:1:1:1 ratio, desalted using C18 solid phase extraction cartridges (Waters) and analyzed by LC-MS for channel ratio comparison. Samples were then combined using the adjusted volumes determined in the channel ratio analysis and dried down in a speed vacuum. The combined sample was then resuspended in 1% formic acid, and acidified (pH 2-3) before being subjected to desalting with C18 SPE (Sep-Pak®, Waters). […]

Compound: COC(=O)C[C@@H]1N=C(c2ccc(Cl)cc2)c2c(sc(C(=O)NCCCCCOc3cc4c5c(cccc5c3)C(=O)N(C3CCC(=O)NC3=O)C4=O)c2C)-n2c(C)nnc21 (stereo partly drawn) [Compound 1, methyl 2-((6S)-4-(4-chlorophenyl)-2-((5-((2-(2,6-dioxopiperidin-3-yl)-1,3-dioxo-2,3-dihydro-1H-benzo[de]isoquinolin-5-yl)oxy)pentyl)carbamoyl)-3,9-dimethyl-6H-thieno[3,2-f][1,2,4]triazolo[4,3-a][1,4]diazepin-6-yl)acetate]
degradation activity against BRD2 (in words) (BRD2): inactive | degradation activity against BRD3 (in words) (BRD3): active | degradation activity against BRD4 (in words) (BRD4): active | change in relative abundance of endogenous bromodomain proteins (in words) [1]: downregulation of bromodomain proteins BRD4 | degradation of common IMiD-dependent off-targets (in words) [1]: did not induce degradation

Compound: Nc1cc2c3c(cccc3c1)C(=O)N(C1CCC(=O)NC1=O)C2=O (centres unmarked) [Compound 11, 5-amino-2-(2,6-dioxopiperidin-3-yl)-1H-benzo[de]isoquinoline-1,3(2H)-dione]
CRBN binding (in words), IC50 comparable to lenalidomide (DDB1ΔB-CRBN): potent binders of CRBN | IC50 (DDB1ΔB-CRBN): 11.4 µM | Ki (DDB1ΔB-CRBN): 3.2 µM | activity against the target IKZF1 (degradation, in words) (IKZF1): inactive

Compound: Cc1sc2c(c1C)C(c1ccc(Cl)cc1)=N[C@@H](CC(=O)NCCCCCCCCNC(=O)COc1cc3c4c(cccc4c1)C(=O)N(C1CCC(=O)NC1=O)C3=O)c1nnc(C)n1-2 (stereo partly drawn) [Compound 2, 2-((S)-4-(4-chlorophenyl)-2,3,9-trimethyl-6H-thieno[3,2-f][1,2,4]triazolo [4,3-a][1,4]diazepin-6-yl)-N-(8-(2-(2-(2,6-dioxopiperidin-3-yl)-1,3-dioxo-2,3-dihydro-1H-benzo[de]isoquinolin-5-yloxy)acetamido)octyl)acetamide]
degradation activity against BRD2 (in words) (BRD2): active | degradation activity against BRD3 (in words) (BRD3): active | degradation activity against BRD4 (in words) (BRD4): active | change in relative abundance of endogenous bromodomain proteins (in words) [1]: downregulation of bromodomain proteins BRD2, 3 and 4 | degradation of common IMiD-dependent off-targets (in words) [1]: did not induce degradation

Next, values leading:

CRBN binding (in words), IC50 comparable to lenalidomide (DDB1ΔB-CRBN): potent binders of CRBN | IC50 (DDB1ΔB-CRBN): 3.5 µM | Ki (DDB1ΔB-CRBN): 0.98 µM | activity against the target IKZF1 (degradation, in words) (IKZF1): inactive
Compound: O=C1CCC(N2C(=O)c3cccc4cc(O)cc(c34)C2=O)C(=O)N1 (centres unmarked) [Compound 10, 2-(2,6-dioxopiperidin-3-yl)-5-hydroxy-1H-benzo[de]isoquinoline-1,3(2H)-dione]

CRBN binding (in words), IC50 comparable to lenalidomide (DDB1ΔB-CRBN): potent binders of CRBN | IC50 (DDB1ΔB-CRBN): 2.6 µM | Ki (DDB1ΔB-CRBN): 0.7 µM | IC50 (MM1.S cells): ~21.5 µM | activity against the target IKZF1 (degradation, in words) (IKZF1): inactive
Compound: O=C1CCC(N2C(=O)c3cccc4cccc(c34)C2=O)C(=O)N1 (centres unmarked) [Compound 9, 2-(2,6-dioxopiperidin-3-yl)-1H-benzo[de]isoquinoline-1,3(2H)-dione]
